ChEMBL document CHEMBL4602641, “Discovery of novel pyrrolo[2,3-b]pyridine derivatives bearing 4-oxoquinoline moiety as potential antitumor inhibitor” (Bioorg Med Chem Lett, 2020)
The source made the active and inactive calls. The calls are words filed in the database; no cut-off is given here.

Assays:
MCF7 = assay: Antiproliferative activity against human MCF7 cells assessed as cell growth inhibition measured after 72 hrs by MTT assay; details: MCF7, 72 h
A549 [1] = assay: Antiproliferative activity against human A549 cells assessed as cell growth inhibition measured after 72 hrs by MTT assay; details: A549, 72 h
HepG2 [2] = assay: Antiproliferative activity against human HepG2 cells assessed as cell growth inhibition measured after 72 hrs by MTT assay; details: HepG2, 72 h
[3] = target: Hepatocyte growth factor receptor (Homo sapiens, UniProt P08581); assay: Inhibition of c-Met (unknown origin) by caliper mobility shift assay
Sequence of Hepatocyte growth factor receptor (P08581 whole entry): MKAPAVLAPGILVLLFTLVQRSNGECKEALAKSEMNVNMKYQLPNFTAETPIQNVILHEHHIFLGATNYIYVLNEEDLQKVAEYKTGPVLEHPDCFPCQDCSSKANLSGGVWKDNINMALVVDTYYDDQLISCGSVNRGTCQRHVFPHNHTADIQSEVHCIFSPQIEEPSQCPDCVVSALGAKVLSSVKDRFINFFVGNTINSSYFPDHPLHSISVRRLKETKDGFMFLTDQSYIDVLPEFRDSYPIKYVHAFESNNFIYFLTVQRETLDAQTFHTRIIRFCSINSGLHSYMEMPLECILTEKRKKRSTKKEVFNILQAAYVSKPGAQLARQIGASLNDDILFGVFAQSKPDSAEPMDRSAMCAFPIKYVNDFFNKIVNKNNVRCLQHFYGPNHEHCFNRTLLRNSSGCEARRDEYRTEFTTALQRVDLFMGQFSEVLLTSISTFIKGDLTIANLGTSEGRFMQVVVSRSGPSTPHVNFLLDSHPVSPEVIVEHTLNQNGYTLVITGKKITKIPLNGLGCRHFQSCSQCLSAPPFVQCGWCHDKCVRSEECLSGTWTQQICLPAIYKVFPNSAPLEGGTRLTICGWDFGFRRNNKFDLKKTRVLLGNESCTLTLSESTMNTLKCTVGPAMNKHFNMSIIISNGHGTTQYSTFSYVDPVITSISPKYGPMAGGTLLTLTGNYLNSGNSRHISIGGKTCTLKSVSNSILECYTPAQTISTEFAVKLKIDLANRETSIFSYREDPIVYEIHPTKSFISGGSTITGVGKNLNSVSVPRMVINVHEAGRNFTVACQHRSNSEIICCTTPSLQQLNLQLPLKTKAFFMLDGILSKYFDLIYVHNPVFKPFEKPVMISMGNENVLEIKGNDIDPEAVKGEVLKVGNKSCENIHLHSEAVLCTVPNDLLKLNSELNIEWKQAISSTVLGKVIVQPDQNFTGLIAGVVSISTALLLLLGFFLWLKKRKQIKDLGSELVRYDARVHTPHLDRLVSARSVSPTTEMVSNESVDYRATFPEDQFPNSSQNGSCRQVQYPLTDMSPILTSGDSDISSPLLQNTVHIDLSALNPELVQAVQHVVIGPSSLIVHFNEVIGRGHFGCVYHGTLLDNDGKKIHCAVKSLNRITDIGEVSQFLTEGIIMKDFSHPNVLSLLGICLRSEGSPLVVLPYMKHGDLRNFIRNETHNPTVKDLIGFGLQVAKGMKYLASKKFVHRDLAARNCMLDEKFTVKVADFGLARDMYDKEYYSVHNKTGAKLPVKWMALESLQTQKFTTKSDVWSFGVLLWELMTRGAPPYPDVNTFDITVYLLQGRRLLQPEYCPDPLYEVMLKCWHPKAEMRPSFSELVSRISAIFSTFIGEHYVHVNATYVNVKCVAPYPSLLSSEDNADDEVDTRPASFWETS

HepG2 [4] = assay: Induction of apoptosis in human HepG2 cells assessed as concentrated chromatin at 0.24 uM by acridine orange staining based fluorescence microscopy; format: functional, cell-based
[5] = target: Platelet-derived growth factor receptor beta (Homo sapiens, UniProt P09619); assay: Inhibition of PDGFRbeta (unknown origin) by enzymatic assay
Sequence of Platelet-derived growth factor receptor beta (P09619 whole entry): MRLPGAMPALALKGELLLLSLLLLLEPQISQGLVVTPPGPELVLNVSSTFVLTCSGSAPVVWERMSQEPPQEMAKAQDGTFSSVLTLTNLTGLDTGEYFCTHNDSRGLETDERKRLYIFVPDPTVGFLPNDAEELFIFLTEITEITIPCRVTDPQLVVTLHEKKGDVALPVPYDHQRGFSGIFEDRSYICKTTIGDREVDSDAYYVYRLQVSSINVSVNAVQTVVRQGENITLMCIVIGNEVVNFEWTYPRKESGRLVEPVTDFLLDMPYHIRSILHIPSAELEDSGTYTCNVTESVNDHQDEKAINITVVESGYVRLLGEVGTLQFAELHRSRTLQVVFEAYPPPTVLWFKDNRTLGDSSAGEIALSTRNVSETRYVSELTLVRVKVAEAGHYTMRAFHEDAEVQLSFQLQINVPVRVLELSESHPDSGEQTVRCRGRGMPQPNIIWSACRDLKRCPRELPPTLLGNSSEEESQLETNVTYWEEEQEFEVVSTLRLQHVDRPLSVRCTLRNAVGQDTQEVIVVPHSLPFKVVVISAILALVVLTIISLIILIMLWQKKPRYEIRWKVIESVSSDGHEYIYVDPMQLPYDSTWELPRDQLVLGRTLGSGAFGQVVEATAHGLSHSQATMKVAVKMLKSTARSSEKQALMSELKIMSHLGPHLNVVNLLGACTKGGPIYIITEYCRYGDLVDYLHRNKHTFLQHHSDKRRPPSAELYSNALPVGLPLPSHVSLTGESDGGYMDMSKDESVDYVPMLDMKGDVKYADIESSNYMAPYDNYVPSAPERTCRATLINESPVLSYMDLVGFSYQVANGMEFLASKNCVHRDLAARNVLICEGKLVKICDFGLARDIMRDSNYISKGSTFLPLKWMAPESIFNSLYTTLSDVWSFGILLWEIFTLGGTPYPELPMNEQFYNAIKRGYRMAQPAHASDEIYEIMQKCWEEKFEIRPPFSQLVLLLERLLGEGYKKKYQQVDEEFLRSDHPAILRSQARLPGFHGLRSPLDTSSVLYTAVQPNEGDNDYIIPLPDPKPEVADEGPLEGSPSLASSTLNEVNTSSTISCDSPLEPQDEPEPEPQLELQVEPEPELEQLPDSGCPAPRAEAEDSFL

[6] = target: ALK tyrosine kinase receptor (Homo sapiens, UniProt Q9UM73); assay: Inhibition of ALK (unknown origin) by enzymatic assay
Sequence of ALK tyrosine kinase receptor (Q9UM73 whole entry): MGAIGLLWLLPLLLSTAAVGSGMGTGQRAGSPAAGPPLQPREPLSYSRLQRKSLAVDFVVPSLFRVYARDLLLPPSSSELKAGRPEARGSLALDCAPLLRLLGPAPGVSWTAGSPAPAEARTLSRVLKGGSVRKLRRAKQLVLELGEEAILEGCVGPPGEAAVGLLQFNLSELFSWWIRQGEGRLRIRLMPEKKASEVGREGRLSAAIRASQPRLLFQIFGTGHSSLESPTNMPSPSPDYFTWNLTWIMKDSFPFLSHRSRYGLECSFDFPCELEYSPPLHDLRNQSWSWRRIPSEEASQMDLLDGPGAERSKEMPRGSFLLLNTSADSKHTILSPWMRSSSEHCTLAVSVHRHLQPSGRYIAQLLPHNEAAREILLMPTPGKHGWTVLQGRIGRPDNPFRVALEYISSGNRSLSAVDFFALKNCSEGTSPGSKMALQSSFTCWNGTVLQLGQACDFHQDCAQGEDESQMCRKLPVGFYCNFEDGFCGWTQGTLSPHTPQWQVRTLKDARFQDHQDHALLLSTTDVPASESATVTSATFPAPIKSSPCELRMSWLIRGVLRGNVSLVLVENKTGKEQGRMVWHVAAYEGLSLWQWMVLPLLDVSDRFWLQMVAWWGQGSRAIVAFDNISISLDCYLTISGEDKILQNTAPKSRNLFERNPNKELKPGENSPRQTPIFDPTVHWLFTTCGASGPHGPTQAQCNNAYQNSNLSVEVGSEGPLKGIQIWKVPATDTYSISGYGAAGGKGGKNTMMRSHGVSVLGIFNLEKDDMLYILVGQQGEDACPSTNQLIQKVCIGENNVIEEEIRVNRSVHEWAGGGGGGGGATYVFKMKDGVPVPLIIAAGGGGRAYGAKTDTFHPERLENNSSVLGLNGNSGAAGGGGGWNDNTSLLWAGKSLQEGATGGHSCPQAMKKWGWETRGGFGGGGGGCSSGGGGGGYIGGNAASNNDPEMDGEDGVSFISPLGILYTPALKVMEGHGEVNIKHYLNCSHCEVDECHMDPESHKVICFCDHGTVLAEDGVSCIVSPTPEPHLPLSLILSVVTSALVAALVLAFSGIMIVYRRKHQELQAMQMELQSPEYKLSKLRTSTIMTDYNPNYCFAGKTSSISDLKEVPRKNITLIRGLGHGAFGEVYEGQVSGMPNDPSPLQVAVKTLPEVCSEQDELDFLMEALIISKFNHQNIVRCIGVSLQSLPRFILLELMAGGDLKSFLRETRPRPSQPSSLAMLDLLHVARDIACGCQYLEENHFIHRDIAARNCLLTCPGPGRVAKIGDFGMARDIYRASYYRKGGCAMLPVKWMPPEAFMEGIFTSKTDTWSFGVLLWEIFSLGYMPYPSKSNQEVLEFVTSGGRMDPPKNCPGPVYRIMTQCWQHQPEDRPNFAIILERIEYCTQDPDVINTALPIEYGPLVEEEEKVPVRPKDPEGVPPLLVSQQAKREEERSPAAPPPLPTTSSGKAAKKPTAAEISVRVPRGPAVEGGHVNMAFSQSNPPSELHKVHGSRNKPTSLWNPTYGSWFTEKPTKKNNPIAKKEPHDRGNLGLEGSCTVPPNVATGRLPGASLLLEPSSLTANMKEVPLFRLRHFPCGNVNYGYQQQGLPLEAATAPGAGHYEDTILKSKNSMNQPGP

HepG2 [7] = assay: Induction of apoptosis in human HepG2 cells assessed as decomposed nucleus at 0.24 uM by acridine orange staining based fluorescence microscopy; format: functional, cell-based
[8] = target: Vascular endothelial growth factor receptor 2 (Homo sapiens, UniProt P35968); assay: Inhibition of VEGFR2 (unknown origin) by enzymatic assay
[9] = target: Mast/stem cell growth factor receptor Kit (Homo sapiens, UniProt P10721); assay: Inhibition of c-Kit (unknown origin) by enzymatic assay
Sequence of Mast/stem cell growth factor receptor Kit (P10721 whole entry): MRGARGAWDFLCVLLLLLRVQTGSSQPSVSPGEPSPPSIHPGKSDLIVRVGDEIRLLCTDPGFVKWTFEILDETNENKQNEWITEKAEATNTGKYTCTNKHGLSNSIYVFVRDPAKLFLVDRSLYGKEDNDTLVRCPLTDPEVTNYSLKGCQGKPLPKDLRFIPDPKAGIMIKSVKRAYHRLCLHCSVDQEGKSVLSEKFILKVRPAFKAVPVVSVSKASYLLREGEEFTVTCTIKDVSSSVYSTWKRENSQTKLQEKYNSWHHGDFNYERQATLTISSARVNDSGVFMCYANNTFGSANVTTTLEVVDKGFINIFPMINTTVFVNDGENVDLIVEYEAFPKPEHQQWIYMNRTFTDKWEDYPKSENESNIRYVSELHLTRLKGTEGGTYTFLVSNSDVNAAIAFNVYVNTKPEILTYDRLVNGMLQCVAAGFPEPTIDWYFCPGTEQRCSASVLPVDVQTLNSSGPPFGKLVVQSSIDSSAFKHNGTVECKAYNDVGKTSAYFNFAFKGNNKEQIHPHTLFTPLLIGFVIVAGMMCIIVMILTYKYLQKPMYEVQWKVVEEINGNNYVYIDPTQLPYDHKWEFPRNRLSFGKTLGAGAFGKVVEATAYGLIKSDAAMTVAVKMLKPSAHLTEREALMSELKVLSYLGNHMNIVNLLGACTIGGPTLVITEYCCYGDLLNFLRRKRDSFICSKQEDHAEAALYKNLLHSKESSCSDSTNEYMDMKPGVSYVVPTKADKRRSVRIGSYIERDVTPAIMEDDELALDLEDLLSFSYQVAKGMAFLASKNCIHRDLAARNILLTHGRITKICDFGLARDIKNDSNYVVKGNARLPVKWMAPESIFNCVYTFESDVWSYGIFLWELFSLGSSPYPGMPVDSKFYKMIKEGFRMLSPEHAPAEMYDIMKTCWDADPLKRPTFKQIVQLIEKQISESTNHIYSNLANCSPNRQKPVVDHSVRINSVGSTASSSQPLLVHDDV

[10] = target: Macrophage-stimulating protein receptor (Homo sapiens, UniProt Q04912); assay: Inhibition of RON (unknown origin) by enzymatic assay
HepG2 [11] = assay: Induction of apoptosis in human HepG2 cells assessed as abnormal cell morphology at 0.24 uM by inverted microscopy microscopy; format: functional, cell-based
A549 [12] = assay: Antiproliferative activity against human A549 cells assessed as cell growth inhibition measured after 72 hrs by MTT assay
HepG2 [13] = assay: Induction of apoptosis in human HepG2 cells assessed as dispersed nucleus at 0.24 uM by acridine orange staining based fluorescence microscopy; format: functional, cell-based
HepG2 [14] = assay: Induction of apoptosis in human HepG2 cells assessed as abnormal cell morphology at 0.24 uM by acridine orange staining based fluorescence microscopy; format: functional

O=C(Nc1ccc(Oc2ccnc3[nH]ccc23)cc1)c1cn(-c2ccc(F)c(Cl)c2)c2ccccc2c1=O
IC50 (MCF7): 1510 nM
IC50 (A549 [1]): 4810 nM
IC50 (HepG2 [2]): 1120 nM

Cn1ccc2c(Oc3ccc(NC(=O)c4cn(-c5ccc(Cl)cc5)c5ccccc5c4=O)cc3F)ccnc21
IC50 (MCF7): 2120 nM
IC50 (A549 [1]): 250 nM
IC50 (HepG2 [2]): 290 nM
IC50 [3]: 87 nM

O=C(Nc1ccc(Oc2ccnc3[nH]ccc23)c(F)c1)c1cn(-c2ccccc2)c2ccccc2c1=O
IC50 (MCF7): 430 nM
IC50 (A549 [1]): 420 nM
IC50 (HepG2 [2]): 760 nM

Cn1ccc2c(Oc3ccc(NC(=O)c4cn(-c5ccc(Br)cc5F)c5ccccc5c4=O)cc3F)ccnc21
IC50 (MCF7): 420 nM
IC50 (A549 [1]): 1520 nM
IC50 (HepG2 [2]): 2510 nM

Cn1ccc2c(Oc3ccc(NC(=O)c4cn(-c5ccccc5)c5ccccc5c4=O)cc3F)ccnc21
IC50 (MCF7): 2790 nM
IC50 (A549 [1]): 1720 nM
IC50 (HepG2 [2]): 2170 nM

COc1ccc(-n2cc(C(=O)Nc3ccc(Oc4ccnc5c4ccn5C)c(F)c3)c(=O)c3ccccc32)cc1
IC50 (MCF7): 6720 nM
IC50 (A549 [1]): 3210 nM
IC50 (HepG2 [2]): 3750 nM

O=C(Nc1ccc(Oc2ccnc3[nH]ccc23)cc1)c1cn(-c2ccc(Cl)cc2)c2ccccc2c1=O
IC50 (MCF7): 1590 nM
IC50 (A549 [1]): 650 nM
IC50 (HepG2 [2]): 250 nM

O=C(Nc1ccc(Oc2ccnc3[nH]ccc23)c(F)c1)c1cn(-c2ccc(F)c(Cl)c2)c2ccccc2c1=O
IC50 (A549 [1]): 2150 nM
IC50 (HepG2 [2]): 3390 nM

O=C(Nc1ccc(Oc2ccnc3[nH]ccc23)cc1)c1cn(-c2ccc(C(F)(F)F)cc2Cl)c2ccccc2c1=O
IC50 (MCF7): 3570 nM
IC50 (A549 [1]): 2350 nM

O=C(Nc1ccc(Oc2ccnc3[nH]ccc23)cc1)c1cn(-c2ccccc2)c2ccccc2c1=O
IC50 (MCF7): 3560 nM
IC50 (A549 [1]): 1030 nM
IC50 (HepG2 [2]): 2250 nM

O=C(Nc1ccc(Oc2ccnc3[nH]ccc23)c(F)c1)c1cn(-c2ccc(Br)cc2F)c2ccccc2c1=O
IC50 (MCF7): 1390 nM
IC50 (A549 [1]): 1150 nM
IC50 (HepG2 [2]): 2200 nM

COc1ccc(-n2cc(C(=O)Nc3ccc(Oc4ccnc5[nH]ccc45)cc3)c(=O)c3ccccc32)cc1
IC50 (MCF7): 4650 nM
IC50 (A549 [1]): 4980 nM
IC50 (HepG2 [2]): 5950 nM

O=C(Nc1ccc(Oc2ccnc3[nH]ccc23)c(F)c1)c1cn(-c2ccc(C(F)(F)F)cc2Cl)c2ccccc2c1=O
IC50 (MCF7): 1120 nM
IC50 (A549 [1]): 1620 nM
IC50 (HepG2 [2]): 1840 nM

Cn1ccc2c(Oc3ccc(NC(=O)c4cn(-c5ccc(F)cc5)c5ccccc5c4=O)cc3F)ccnc21
IC50 (A549 [1]): 1460 nM
IC50 (HepG2 [2]): 2010 nM

Cn1ccc2c(Oc3ccc(NC(=O)c4cn(-c5ccc(Br)cc5)c5ccccc5c4=O)cc3F)ccnc21
IC50 (MCF7): 1830 nM
IC50 (A549 [1]): 1390 nM
IC50 (HepG2 [2]): 1260 nM

O=C(Nc1ccc(Oc2ccnc3[nH]ccc23)cc1)c1cn(-c2ccc(Br)cc2F)c2ccccc2c1=O
IC50 (A549 [1]): 1330 nM
IC50 (HepG2 [2]): 790 nM

O=C(Nc1ccc(Oc2ccnc3[nH]ccc23)c(F)c1)c1cn(-c2ccc(Cl)cc2)c2ccccc2c1=O
IC50 (A549 [1]): 320 nM
IC50 (HepG2 [2]): 380 nM
IC50 [3]: 41 nM

Cn1ccc2c(Oc3ccc(NC(=O)c4cn(-c5ccc(C(F)(F)F)cc5Cl)c5ccccc5c4=O)cc3F)ccnc21
IC50 (MCF7): 190 nM
IC50 (A549 [1]): 2050 nM

O=C(Nc1ccc(Oc2ccnc3[nH]ccc23)cc1)c1cn(-c2ccc(F)cc2)c2ccccc2c1=O
IC50 (MCF7): 720 nM
IC50 (A549 [1]): 390 nM
IC50 (HepG2 [2]): 450 nM

Cn1ccc2c(Oc3ccc(NC(=O)c4cn(-c5ccc(F)c(Cl)c5)c5ccccc5c4=O)cc3F)ccnc21
IC50 (A549 [1]): 1210 nM

COc1cc2c(Oc3ccc(NC(=O)C4(C(=O)Nc5ccc(F)cc5)CC4)cc3F)ccnc2cc1OCCCN1CCOCC1 [FORETINIB]
IC50 (MCF7): 730 nM
IC50 (A549 [1]): 480 nM
IC50 (HepG2 [2]): 350 nM

COc1ccc(-n2cc(C(=O)Nc3ccc(Oc4ccnc5[nH]ccc45)c(F)c3)c(=O)c3ccccc32)cc1
IC50 (MCF7): 6620 nM
IC50 (A549 [1]): 4150 nM
IC50 (HepG2 [2]): 6530 nM

O=C(Nc1ccc(Oc2ccnc3[nH]ccc23)cc1)c1cn(-c2ccc(Br)cc2)c2ccccc2c1=O
IC50 (MCF7): 610 nM
IC50 (A549 [1]): 450 nM
IC50 (HepG2 [2]): 220 nM
IC50 [3]: 10 nM

O=C(Nc1ccc(Oc2ccnc3[nH]ccc23)c(F)c1)c1cn(-c2ccc(F)cc2)c2ccccc2c1=O
IC50 (MCF7): 520 nM
Activity (HepG2 [4]): Active
IC50 [5]: > 10000 nM
IC50 [6]: > 10000 nM
Activity (HepG2 [7]): Active
IC50 [8]: > 10000 nM
IC50 [9]: 1310 nM
IC50 [10]: > 10000 nM
IC50 (A549 [1]): 290 nM
IC50 (HepG2 [2]): 270 nM
Activity (HepG2 [11]): Active
inhibition (A549 [12]): Dose-dependent effect
Activity (HepG2 [13]): Active
Activity (HepG2 [14]): Active

O=C(Nc1ccc(Oc2ccnc3[nH]ccc23)c(F)c1)c1cn(-c2ccc(Br)cc2)c2ccccc2c1=O
IC50 (MCF7): 650 nM
IC50 (A549 [1]): 950 nM
IC50 (HepG2 [2]): 710 nM
